# Experimental data from patent publication US20250188042A1, “HETEROCYCLIC COMPOUND, PREPARATION METHOD THEREFOR, AND USE THEREOF” (SICHUAN UNIVERSITY, priority 2023, published 2025).
# System: HSC-3
# Experiment: CCK8 proliferation assay on squamous cell carcinoma cell line HSC-3
# Format: cell-based
# Conditions: Homo sapiens, first of two lines listed (HSC-3, HSC-4), 48 h, read-out: IC50 against SCC cells (first of two SCC cells)
# Protocol: (§1) Squamous cell carcinoma cell lines: HSC-3, HSC-4.
# (§2) The above two tumor cell lines were cultured in a standardized incubator at 37° C. under 5% CO2; the cells in logarithmic growth phase were digested and counted, followed by seeding in a 96-well plate at 3000 cells/well, and then cultured overnight in an incubator. The stock solution of each compound was prepared using DMSO at a concentration of 10 mM, and diluted sequentially (0, 1.25, 2.5, 5, 10 μM) before treating the cells. The control group was added with the highest concentration of DMSO, and then cultivated continuously in an incubator for 48 h. The CCK8 cell proliferation kit was used to detect the effect of each compound on the proliferation of tumor cells. Moreover, the experimental results of representative compounds were analyzed, and their IC50 values were calculated to evaluate the effect of the compounds on the proliferation of tumor cells.
row,IC50 [µM],Compound
1,4.85,O=C(CCn1ccc(=O)n(CCC(=O)Nc2ccc(C34CC5CC(CC(C5)C3)C4)cc2)c1=O)Nc1ccc(C23CC4CC(CC(C4)C2)C3)cc1 [Compound 8a]

# System: HSC-4
# Experiment: CCK8 proliferation assay on squamous cell carcinoma cell line HSC-4
# Format: cell-based
# Conditions: Homo sapiens, second of two lines listed (HSC-3, HSC-4), 48 h, read-out: IC50 against SCC cells (second of two SCC cells)
# Protocol: as §1, §2
row,IC50 [µM],Compound
1,9.87,O=C(CCn1ccc(=O)n(CCC(=O)Nc2ccc(C34CC5CC(CC(C5)C3)C4)cc2)c1=O)Nc1ccc(C23CC4CC(CC(C4)C2)C3)cc1 [Compound 8a]

# System: SCC cells
# Experiment: CCK8 proliferation assay on SCC cells (cell line not specified)
# Format: cell-based
# Conditions: SCC cell line not stated (HSC-3 or HSC-4), 48 h, read-out: IC50 against SCC cells
# Protocol: as §1, §2
row,Compound,IC50 [µM]
1,CCc1cn(CCC(=O)Nc2ccc(C34CC5CC(CC(C5)C3)C4)cc2)c(=O)n(CCC(=O)Nc2ccc(C34CC5CC(CC(C5)C3)C4)cc2)c1=O [Compound 10a],6.18
2,N#Cc1cn(CCC(=O)Nc2ccc(C34CC5CC(CC(C5)C3)C4)cc2)c(=O)n(CCC(=O)Nc2ccc(C34CC5CC(CC(C5)C3)C4)cc2)c1=O [Compound 12a],9.54
3,COc1cn(CCC(=O)Nc2ccc(C34CC5CC(CC(C5)C3)C4)cc2)c(=O)n(CCC(=O)Nc2ccc(C34CC5CC(CC(C5)C3)C4)cc2)c1=O [Compound 14a],6.18
4,O=C(CCn1cc(Cl)c(=O)n(CCC(=O)Nc2ccc(C34CC5CC(CC(C5)C3)C4)cc2)c1=O)Nc1ccc(C23CC4CC(CC(C4)C2)C3)cc1 [Compound 16a],9.66
5,O=C(CCn1cc(Br)c(=O)n(CCC(=O)Nc2ccc(C34CC5CC(CC(C5)C3)C4)cc2)c1=O)Nc1ccc(C23CC4CC(CC(C4)C2)C3)cc1 [Compound 18a],4.85
6,O=C(CCn1cc(I)c(=O)n(CCC(=O)Nc2ccc(C34CC5CC(CC(C5)C3)C4)cc2)c1=O)Nc1ccc(C23CC4CC(CC(C4)C2)C3)cc1 [Compound 20a],4.86
7,Nc1ccn(CCC(=O)Nc2ccc(C34CC5CC(CC(C5)C3)C4)cc2)c(=O)n1 [Compound 24],1.48
